Test [1] has as its system AMPA receptor. Briefly: mEPSC whole cell recordings in cultured hippocampal neurons, AMPA receptor component. In kind it is cell-based, rat. Particulars: under the recording conditions used. On the procedure:
(§1) Fetal rat hippocampal neurons were prepared, cultured, and used for electrophysiological recordings 12-17 days after plating. Methods for whole cell recordings are described in Pelkey et al. (Neuron 34:127-138 2002).
(§2) In contrast, in control experiments administering EPQ(pY)EEIPIA (SEQ ID NO:5) increased the NMDAR component of mEPSCs by 172±28% and application of Src40-58 decreased the NMDAR component to 56±4% (FIGS. 5D-F). […] Composite traces are shown in black, the NMDAR component in dark grey, and the AMPAR component in light grey. Scale bars are 50 ms/10 pA. […] NMDA component data were calculated as Q20′/Q2′, and AMPA component data were calculated as A20′/A2′. […] An * indicates a significant difference, Student's t-test, p<0.05. Taking our results together, it is concluded that Src-dependent regulation of the activity of NMDARs depends on expression of ND2 through its anchoring of Src to the NMDAR complex.

Test [2] relates to LTP in CA1 neurons. Particulars: cited from earlier work.
Test [3] has as its target T1, ND2 association with NMDAR complexes (Rattus norvegicus, UniProt P11662).
T1 construct: from tissue; host or cells: rat brain post-synaptic density fraction
Briefly: co-immunoprecipitation of ND2 with NMDARs from PSD proteins. In kind it is binding. On the procedure: (§3) Detailed protocols for in vitro binding assays, pull down assays, immunoblotting, and co-immunoprecipitation techniques can be found in Pelkey et al. (Neuron 34:127-138 2002).
(§4) Post-synaptic density proteins (Kennedy et al. Proceedings of the National Academy of Science USA 80:7357-7361 1983) were prepared from rat brain as described in detail (Pelkey et al. Neuron 34:127-138 2002). Cellular fractionation of rat brain tissue into nuclear, heavy mitochondrial, light mitochondrial, microsomal, and cytosolic fractions was performed by differential centrifugation of tissue homogenate in 0.25 M sucrose/10 mM HEPES-NaOH, 1 mM EDTA, pH 7.4 with 2 μg each of aprotinin, pepstatin A, and leupeptin (Sigma, St. Louis, Mo.) at 4° C. Nuclei were pelleted by centrifugation at 1 000 g for 10 minutes, the supernatant was removed and spun at 3 000 g for 10 minutes to obtain a heavy mitochondrial pellet. The supernatant was removed and spun at 16 000 g for 15 minutes to obtain a light mitochondrial pellet. The supernatant was removed and spun at 100 000 g for 1 hour to obtain a microsomal pellet and the cytosolic fraction. All pellets were then resuspended in RIPA buffer (50 mM Tris pH 7.6, 150 mM NaCl, 1 mM EDTA, 1% NP-40, 2.5 mg/ml NaDOC, 1 mM Na3VO4 1 mM PMSF, and 2 μg/ml each of protease inhibitors). The light mitochondrial fraction was used in subsequent experiments. […]

Test [4] has as its target T2, association of Src with the NMDAR complexes (Rattus norvegicus, UniProt P11662).
T2 construct: from tissue; host or cells: rat brain post-synaptic density fraction
Briefly: co-immunoprecipitation of Src with NMDARs from PSD proteins. Type of test: binding. On the procedure: as §3, §4

Test [5] concerns NMDAR. In words: mEPSC whole cell recordings in cultured hippocampal neurons, NMDAR component. Type of test: cell-based, rat. On the procedure: as §1, §2
The target in test [6] is T3, interaction between the ND2.1-GST and Src unique domain proteins (Homo sapiens, UniProt P03891, A265T).
T3 construct: made in house; host or cells: BL21 bacteria
T3 sequence (P03891 239-318 A265T): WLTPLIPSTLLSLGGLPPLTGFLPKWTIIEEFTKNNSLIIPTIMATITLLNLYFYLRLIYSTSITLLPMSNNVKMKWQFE
Briefly: ND2.1-GST probed with biotinylated Src unique domain in the presence of peptide or antibody. In kind it is binding. The conditions noted are these: in vitro, ND2.1-GST incubated with peptide.
Description: as §3
ND2 acts as an adapter protein for Src. […] Furthermore, the effect of Src40-58 on the interaction between Src and ND2 was examined (FIGS. 4D and 4E). […] Thus, it was concluded that amino acids 40-58 of Src interact with the region spanned by ND2.1, thereby mediating the binding between the Src unique domain and ND2.

Test [7] concerns the target T4, ND2.2-GST (Homo sapiens, UniProt P03891).
T4 construct: amino acids 189-238 (ND2.2-GST); made in house; host or cells: bacteria
Briefly: dot blot of biotinylated Src peptides on ND2.2-GST. In kind it is binding. Particulars: biotinylated peptide. On the procedure: Src, Fyn, and ND2 recombinant proteins were prepared. The cDNAs encoding the SH3 and SH2 domains of mouse n-Src and Fyn were PCR subcloned, ligated in frame into pGEX4T-1 (Amersham Pharmacia Biotech, Baie d'Urfé, Québec), and sequenced. These plasmids, as well as plasmids encoding the unique domains of Src and Fyn in pGEX2T'6, were transformed into BL21 bacteria, and GST fusion proteins were purified by glutathione affinity chromatography. To create the ND2.1, ND2.2, and ND2.3 GST fusion proteins, cDNAs encoding amino acids 239-321 (ND2.1-GST; SEQ ID NO:7), amino acids 189-238 (ND2.2-GST; SEQ ID NO:11), and amino acids 1-188 (ND2.3-GST; SEQ ID NO:13) of human ND2 were PCR subcloned and ligated into pGEX4T-1 (the nucleotide sequence encoding ND2 is SEQ ID NO:8 and the amino acid sequence is SEQ ID NO:9; the nucleotide sequences encoding ND2.1; ND2.2 and ND2.3 are SEQ ID NOS:6, 10 and 12, respectively). Using PCR-based single nucleotide mutagenesis, all cDNAs encoding ND2 fusion proteins were corrected for differences between mitochondrial and nuclear codons to prevent premature translation termination and protein truncation. […]
Src40-58 and scrambled Src peptides were biotinylated by incubating with Sulfo-NHS-Biotin (Pierce Chemical Co., Rockford, Ill.) for 30 minutes at room temperature (SEQ ID NO:4, Src protein). […] Bound probe was then detected on film using an ECL kit.

T2 sequence (P11662 whole entry, other chains not shown): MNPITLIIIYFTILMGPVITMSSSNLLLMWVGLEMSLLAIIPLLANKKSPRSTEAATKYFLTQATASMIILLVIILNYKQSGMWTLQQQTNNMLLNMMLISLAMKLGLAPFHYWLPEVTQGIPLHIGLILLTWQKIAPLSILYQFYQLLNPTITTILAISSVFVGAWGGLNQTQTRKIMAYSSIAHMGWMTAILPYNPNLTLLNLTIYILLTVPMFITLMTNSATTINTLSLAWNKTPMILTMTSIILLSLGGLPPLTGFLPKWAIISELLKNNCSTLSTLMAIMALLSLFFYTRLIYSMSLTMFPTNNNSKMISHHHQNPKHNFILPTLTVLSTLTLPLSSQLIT
T1 sequence (P11662 whole entry, other chains not shown): as above
T4 sequence (P03891 189-238): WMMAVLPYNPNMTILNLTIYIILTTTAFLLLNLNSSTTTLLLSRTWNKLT

For the substance “Src40-58: peptide comprising amino acid residues 40-58 of SEQ ID NO:4 (Src) (PASADGHRGPSAAFAPAAA; listed as Homo sapiens)”, the “AMPA receptor component of the mEPSCs” value in test [1] is recorded as “neither of these reagents affected”. In addition, the “LTP in CA1 neurons” value in test [2] was “prevented”. For the same substance, the “co-immunoprecipitation of ND2 with NMDARs” value in test [3] is “not affected”. In addition, the “co-immunoprecipitation of Src with NMDARs” value in test [4] is recorded as “suppressed”. Further, the “NMDAR component of mEPSCs, decreased to” value in test [5] (control experiments, cultured hippocampal neurons) came out at 56±4%. Further, the “NMDAR component of the mEPSCs” value in test [5] (neurons treated with chloramphenicol for 48 hours) was “not affected”. In test [6], the “effect on ND2.1-GST pulling down the Src unique domain protein” value is listed as “prevented”. Moreover, in test [7], the “binding to ND2.2-GST” value was “Neither Src40-58 nor scrambled Src40-58 bound”.

(Values after patent publication US8003609B2, “Method for ameliorating pain by modification of NMDA receptors through inhibition of Src” (The Hospital for Sick Children, priority 2004, dated 2011).)
